Test results reported in patent publication US11142501B2, “Prodrugs of monomethyl fumarate” (IXCHEL PHARMA, LLC, priority 2019, dated 2021).
Structures can show the parent of a compound that is named as a salt.

What was measured:
Solubility = assay type: physicochemical; conditions: water; compared with monomethyl fumarate
[1] = Rat plasma conversion (ex-vivo); assay type: in vitro ADME
[2] = Stability of prodrugs on storage at RT and RF; assay type: physicochemical; conditions: in % (unit assumed); for Stability, value at 0 DAY: 0 day (14 Nov. 2018), dissolved in acetonitrile for analysis; for Stability, value at 7 DAY, RT / Stability, value at 15 DAY, RT: storage at room temp/25° C.; for Stability, value at 7 DAY, RT / Stability, value at 7 DAY, RF / Stability, value at 15 DAY, RT / Stability, value at 15 DAY, RF: acetonitrile for analysis; for Stability, value at 7 DAY, RF / Stability, value at 15 DAY, RF: storage under refrigeration/4° C.
Protocol: Compounds dissolved in ACN for analysis RT: Room temp/25° C. RF: Refrigeration/4° C.

[3] = Oral (PO) pharmacokinetics study in SD rat; assay type: in vivo
Protocol: Exemplary compounds of the present invention were subjected to oral (PO) Pharmacokinetics (PK) study in SD rat and data was compared with parent MMF. 6 overnight fasted male SD rats were dosed with MMF dose of 10 mpk and test compounds at the desired dose level of 10 mpk equivalent of MMF by PO route. Dosing vehicle used was MQ water. Blood was collected at different time points by retro orbital route. Plasma samples were stored at −80° C. for LC-MS analysis. Animals were sacrificed post final blood collection. Dosing and collection was done as per the in vivo protocol given below. PK analysis was done using LC-MS (ABI3200). Data analysis was performed using PRISM software to determine PK parameters such Cmax (the maximum (or peak) serum concentration that a drug achieves in a specified compartment or test area of the body after the drug has been administrated and before the administration of a second dose), Tmax (time at which the Cmax is observed) AUC (definite integral in a plot of drug concentration in blood plasma vs. time), MRT (Mean Residence Time) and t1/2 (The time required for one half of the total amount of a particular substance in a biological system to be degraded by biological processes when the rate of removal is nearly exponential)

SMILES	Solubility (Solubility)	Rat plasma conversion [1]	Stability, value at 0 DAY [2]	Stability, value at 7 DAY, RT [2]	Stability, value at 7 DAY, RF [2]	Stability, value at 15 DAY, RT [2]	Stability, value at 15 DAY, RF [2]	pharmacokinetics in delivery of monomethyl fumarate (MMF) in comparison with direct administration of MMF ([3]; FIG. 1 legend, in words)	AUC in rat plasma as compared to the parent drug MMF ([3]; SD rat, PO, in words)	T1/2 in rat plasma as compared to the parent drug MMF ([3]; SD rat, PO, in words)	conversion in vivo ([3]; in vivo, rat)
COC(=O)/C=C/C(=O)O [MMF, monomethyl fumarate]	highly soluble										
COC(=O)/C=C/C(=O)OC[n+]1cccc(C(N)=O)c1.[I-] [SPR11574, (E)-3-carbamoyl-1-(((4-methoxy-4-oxobut-2-enoyl)oxy)methyl) pyridin-1-ium iodide]		convert instantly	97.81	97.61	97.61	97.21	97.95				
CNC(=O)c1ccc[n+](COC(=O)/C=C/C(=O)OC)c1.[I-] [SPR11575, (E)-1-(((4-methoxy-4-oxobut-2-enoyl)oxy)methyl)-3-(methylcarbamoyl) pyridin-1-ium iodide]		convert instantly	97.7	97.61	97.82	97.06	97.66	enhanced	better enhanced	better enhanced	
COC(=O)/C=C/C(=O)OC[n+]1cccc(C(=O)N(C)C)c1.[I-] [SPR11576, (E)-3-(dimethylcarbamoyl)-1-(((4-methoxy-4-oxobut-2-enoyl)oxy)methyl)pyridin-1-ium iodide]		convert instantly	97.68	96.97	97.7	96.28	97.82				
COC(=O)/C=C/C(=O)OCOC(=O)c1cccnc1 [SPR11577, methyl((nicotinoyloxy) methyl)fumarate]		convert instantly	99.35	99.79	99.89	100	100				
COC(=O)/C=C/C(=O)OCOC(=O)c1ccc[n+](C)c1.[I-] [SPR11578, (E)-3-((((4-methoxy-4-oxobut-2-enoyl)oxy)methoxy)carbonyl)-1-methylpyridin-1-ium iodide]		doesn't convert completely									doesn't convert completely
